Laboratory results: a melting point compilation (Tetko et al.; mined from patent text by program, amines drawn as free bases though some values may be those of a salt)

Compound `O=C1CCC(=O)N1CCCCCNC(=O)n1cc(F)c(=O)[nH]c1=O` has a melting point of 142 °C.
`COc1cc2c(cc1O)CCN(Cc1cc(F)cc(F)c1)C2` showed a melting point of 110 to 111 °C.
`CC(N)C(=O)Nc1coc2cc(NS(C)(=O)=O)c(Oc3ccccc3)cc2c1=O` (stereo not drawn) showed a melting point of 111 to 113 °C.
Work on `Nc1ccc(C(=O)Nc2ccc3oc4c(c3c2)CCCC4)cc1` yielded a melting point of 207 to 208 °C.
In the case of `Cc1ccc(N2N=C3c4cc(CCO)sc4CCC3CC2=O)cc1` (stereo not drawn), the melting point was 159 to 160 °C.
In the case of `CC(CCC=O)C1CC=C2C3=C(CCC21C)C1(C)CCC(=O)C(C)(C)C1CC3` (stereo not drawn), the melting point was 96.5 to 97 °C.
In the case of `CC(C)(C)c1cc(C(=O)NCCc2ccc([N+](=O)[O-])cc2)cc(C(C)(C)C)c1O`, the melting point was 204 to 206 °C.
In the case of `COc1ccccc1COc1ccc(S(=O)(=O)c2cnc(C)nc2Nc2c(C)cc(C)cc2C)cc1`, the melting point was 200 to 202 °C.
Compound `CCCCNC(=O)CCC(=O)c1ccccc1` has a melting point of 78 to 80 °C.
For `Cc1nc2cccc(Cl)c2n1-c1ccccc1`, the melting point was 103 to 105 °C.
In the case of `O=S1(=O)c2cccc3cccc(c23)N1CCCN1CCN(c2ccc(Br)cc2)CC1`, the melting point was 149 °C.
`FC(F)(F)CCN1CCN(Cc2ccc3c(c2)-c2[nH]nc(-c4ccsc4)c2C3)CC1` showed a melting point of 195 to 200 °C.
In the case of `O=C1N(c2cc(Cl)nc(Cl)c2)C(=O)C2(Cc3ccc(Br)cc3)CCCN12` (stereo not drawn), the melting point was 76.3 °C.
`COc1cc(C(=O)N2Cc3ccccc3Cc3ccccc32)ccc1NC(=O)c1ccc(Cl)cc1Cl` gave a melting point of 212 to 214 °C.
In the case of `O=C1CCC(N2Cc3cc(CNC(=O)Nc4ccc(Cl)c(-c5nc6ccccc6[nH]5)c4)ccc3C2=O)C(=O)N1` (stereo not drawn), the melting point was 275 to 277 °C.
With `COc1ccc(-c2noc(C(F)F)c2-c2ccc(S(N)(=O)=O)cc2)cc1F` the melting point was 188 to 190 °C.
Compound `O=C1NCC(C(=O)O)S1` (stereo not drawn) has a melting point of 148 to 150 °C.
Compound `Nc1ccc(-c2cc(=O)c(C(=O)O)cn2-c2ccc(F)cc2)cc1` has a melting point of 262 to 266 °C.
`CC(=O)N1CC(=O)N(CCc2ccccc2)C(=O)C1` showed a melting point of 130 °C.
In the case of `CCOC(=O)C1CSC(c2cc3cccc(NS(=O)(=O)c4cccs4)c3[nH]2)=N1` (stereo not drawn), the melting point was 156 to 157 °C.
`COc1cccc2c1c(N1CCOCC1)nc1c(-c3noc(C4CC4)n3)ncn12` gave a melting point of 227 to 228 °C.
Work on `COc1ccc(N2CCN(C)[C@@H]3Cc4ccccc4[C@H]32)c(CO)c1` (relative stereo) yielded a melting point of 179 to 183 °C.
`COC(=O)COc1cc(C(=O)N2CCOCC2)ccc1[N+](=O)[O-]` showed a melting point of 140 to 142 °C.
For `CCc1nnc(-c2ccc(OC)cc2)c(-c2ccc(OC)cc2)n1`, the melting point was 73 to 75.5 °C.
For `CCc1cn(C[C@@H](C)O)c2cc(Cl)c(F)cc12`, the melting point was 112 to 114 °C.
`O=C1c2ccccc2-n2cnc(CO)c2[C@@H]2CCCN12` gave a melting point of 212 to 214 °C.
Work on `Cc1c(O)ccc2c1OCC(c1ccc(N)cc1)C2` (stereo not drawn) yielded a melting point of 150 to 151 °C.
Work on `CN(CC(=O)c1cccn1Cc1ccc(Cl)cc1[N+](=O)[O-])Cc1ccccc1` yielded a melting point of 90 to 93 °C.
Compound `CC(C)(C)c1cc(C(=O)Nc2cccc(SCc3cncc4ccccc34)c2)ccc1O` has a melting point of 205 to 210 °C.
With `CC1CCNc2nc3ccc([N+](=O)[O-])cc3n21` (stereo not drawn) the melting point was 172 to 178 °C.
For `COc1cccc(C2=C(CC(C)=O)C(=O)NCCC2)c1`, the melting point was 140 to 142 °C.
Compound `COC(=O)C(CCSC)N(C(=O)OC(C)(C)C)C(=O)c1ccc(N)c(OC)c1` (stereo not drawn) has a melting point of 163 to 165 °C.
Compound `COc1c(C)c(C(=O)c2ccc3nc(C)[nH]c(=O)c3c2)n2ccccc12` has a melting point of 290 °C.
Work on `O=C1Cc2cccc(Sc3ccc(Cl)cc3)c2N1` yielded a melting point of 186 to 188 °C.
With `CS(=O)(=O)c1ccccc1S(=O)(=O)Nc1cccc2cc(C(=O)NCCSC(c3ccccc3)(c3ccccc3)c3ccccc3)[nH]c12` the melting point was 91 to 93 °C.
`N#Cc1ccccc1OC[C@H]1CO1` gave a melting point of 84 to 86 °C.
For `Cc1cc(NC(=O)C(CS)CC(C)C)cc(C(=O)O)c1` (stereo not drawn), the melting point was 193 to 195 °C.
Compound `Cn1c(=O)c(C#N)c(N2CCNCC2)c2cc(F)ccc21` has a melting point of 211 °C.
For `Cc1cccc(NC(=O)NN2CCN(CCc3c[nH]c4ccccc34)CC2)c1`, the melting point was 186 to 188 °C.
Compound `CCOC(=O)c1cc(OCc2ccccc2)c2nc(C)n(C)c2c1` has a melting point of 152 °C.
In the case of `Cc1cc(C(=O)N2Cc3ccc(C(=O)N(C)CC(O)CO)n3Cc3ccccc32)ccc1-c1ccccc1C(F)(F)F` (stereo not drawn), the melting point was 169 to 172 °C.
For `Cn1nnc(-c2cn(C)c3ccccc3c2=O)n1`, the melting point was 189 to 192 °C.
With `O=C(O)C(Oc1ccc(Cl)cc1)Oc1ccc(C2CCNc3ccccc32)cc1` (stereo not drawn) the melting point was 152 to 155 °C.
`O=[N+]([O-])N=C1NC(O)CN1Cc1ccc(Cl)nc1` (stereo not drawn) showed a melting point of 170 °C.
Work on `OCC1OC(n2ccnn2)C(O)C1O` (stereo not drawn) yielded a melting point of 123 to 125 °C.
Compound `CC(C)C[C@@H](C#N)NC(=O)[C@@H]1CCCC[C@@H]1NC(=O)c1cc2ccccc2n1CC(C)(C)O` has a melting point of 102 to 106 °C.
With `CC(=O)SCC(Cc1ccccc1)C(=O)Nc1ccc(C(=O)O)c(O)c1` (stereo not drawn) the melting point was 141 to 142 °C.
For `CCN1CC(C#CC2CC2)(C(F)(F)F)c2cc(Cl)ccc2NC1=O` (stereo not drawn), the melting point was 186 to 188 °C.
Work on `COc1ccc2snnc2c1S(=O)(=O)Cl` yielded a melting point of 131 to 134 °C.
With `CSCC[C@H](NC(=O)c1cc(NC(Cn2ccnc2)c2ccc(F)cc2)ccc1Cc1ccc(F)cc1)C(=O)O` (stereo partly drawn) the melting point was 130 to 135 °C.
Compound `O=C(NO)c1ccccn1` has a melting point of 58 to 68 °C.
With `CCOc1cc2ncc(C#N)c(Nc3ccc(F)c(Cl)c3)c2cc1NC(=O)C=CCN(C)C` the melting point was 196 to 198 °C.
In the case of `O=C(O)c1cnc2cc(O)cc(O)c2c1`, the melting point was greater than 260 °C.
In the case of `CCCCn1c(=O)c2c(NC)n[nH]c2n(CCCl)c1=O`, the melting point was 270 to 272 °C.
For `CC(C)(C)OC(=O)N[C@H]1CN(Cc2ccccc2)[C@@H]2CCCO[C@H]12` (relative stereo), the melting point was 82 to 84 °C.
With `COC(=O)C(=O)c1ccc(OCCOc2ccc3c(c2)CCCC3)cc1` the melting point was 95 to 99 °C.
`Cc1cc(C)c(Nc2nc(C)ccc2S(=O)(=O)c2ccc(-c3ccccc3)cc2)c(C)c1` showed a melting point of 140 to 141 °C.
`O=C(NCCCN1CCN(Cc2ccccc2)CC1)Nc1ccccc1` gave a melting point of 45 to 47 °C.
For `COc1cc2ncc(C#N)c(Nc3cccc(CSC(C)=O)c3)c2cc1OC`, the melting point was 172 to 177 °C.
In the case of `O=S1(=O)c2ccccc2N(c2ccc(-c3nc4ccccc4n3-c3ccccc3)cc2)c2ccccc21`, the melting point was 286 to 288 °C.
In the case of `COC(=O)Cc1ccccc1NC(=S)N(C)C`, the melting point was 110 to 113 °C.
With `O=C(O)CCCCCCCCCC=Cc1ccccc1` the melting point was 27 to 27.5 °C.
Compound `O=C1CCC(Cc2ccc(Br)cc2)=C1O` has a melting point of 144 to 145 °C.
Compound `Nc1ccc(F)c(O)c1` has a melting point of 156 to 157 °C.
Compound `CC(=O)OC1CCC2C3C(Sc4ccc(Br)cc4)C(=O)c4cc(O)ccc4C3CCC12C` (stereo not drawn) has a melting point of 190 to 192 °C.
In the case of `CCOC(=O)/C=C/c1cc(OCc2ccccc2)ccc1Br`, the melting point was 72 to 74 °C.
With `CCCC1CCCNC1=O` (stereo not drawn) the melting point was 75 to 76 °C.
Work on `COc1ccc(CCNC[C@H](O)COc2ccc(-c3nc(Br)c[nH]3)cc2Cl)cc1OC` yielded a melting point of 172 to 174 °C.
Compound `CC(C)(C)OC(=O)N1C(=O)C(Br)=C(c2cn(C(=O)OC(C)(C)C)c3cc(OCc4ccccc4)ccc23)C1=O` has a melting point of 120 °C.
Compound `CCC1(CC)OC(c2ccc(S(C)(=O)=O)cc2)=C(c2cccc(Cl)c2)C1=O` has a melting point of 131 to 132 °C.
`Cc1ccccc1NNC1=NCCS1` showed a melting point of 126 to 127 °C.
Work on `COc1ccc(C(=CC(=O)N2CCOCC2)c2ccc(-c3ccccc3)cc2)cc1OC` yielded a melting point of 127 to 128 °C.
`N#Cc1cnn2c1N(C(=O)CCl)CCC2c1cccc(C(F)(F)F)c1` (stereo not drawn) showed a melting point of 157 to 159 °C.
Work on `CCOc1nc(F)cc2nc(SSc3nc4cc(F)nc(OCC)n4n3)nn12` yielded a melting point of 215 to 216 °C.
Compound `COc1cc2c(cc1OC)C(c1ccccc1)N(C(=O)NCCN(C(C)C)C(C)C)CC2` (stereo not drawn) has a melting point of 109 to 110 °C.
In the case of `O=C(O)c1ccc2oc3c(c(=O)c2c1)CCCC3=Cc1ccccc1`, the melting point was 284 to 286 °C.
`COc1ccc(-c2nc3ncccc3[nH]2)c2cc(C(C)C)oc12` gave a melting point of 242 °C.
Compound `Cc1cc(C#N)nc(-c2ccc([N+](=O)[O-])cc2)c1` has a melting point of 146 to 156 °C.
For `O=C(NCCCCN1CCC(c2c[nH]c3ccccc23)CC1)c1ccc(-c2ccc(C(F)(F)F)cc2)c(CO)c1`, the melting point was 177 °C.
With `CC(=O)c1ccc(C2(O)CC(C)(C)CC(C)(C)C2)cc1` the melting point was 135 °C.
`CC(C)c1ccc(N(Cc2ccc(N(C)C)cc2)C(=O)C2CCc3c(O)cccc32)cc1` (stereo not drawn) showed a melting point of 158 to 160 °C.
In the case of `CCCNC(=O)Nc1ccccc1Nc1ccc(C(=O)c2ccccc2)cc1`, the melting point was 167 to 169 °C.
With `CS(=O)(=O)Cc1cc(C(=O)C=O)ccc1OCc1ccccc1` the melting point was 108 to 110 °C.
For `COc1ccc(-c2cc(-c3c(-c4ccccn4)nc4ccccn34)ccn2)cc1`, the melting point was 222 °C.
`CC(=O)c1sc(N2CCN(CC3CC3(F)F)C2=O)nc1C` (stereo not drawn) showed a melting point of 146 to 148 °C.
With `COc1cccc2c(=O)n(C(C)(C)C(=O)O)c(=O)[nH]c12` the melting point was 255 to 258 °C.
Compound `Nc1nc(OCc2ccccc2)c2ncn(CC(=O)O)c2n1` has a melting point of 159 to 165 °C.
With `CCCC1CC1(C(=O)Nc1ccc(Br)cc1C)C(=O)OC` (stereo not drawn) the melting point was 60 °C.
`CN(c1cccc2cc(C3=NCC(CN4CCS(=O)(=O)CC4)S3)[nH]c12)S(=O)(=O)c1cccs1` (stereo not drawn) gave a melting point of 242 °C.
For `O=C(CCCN1CCN(c2ccc(CO)c(Cl)c2)CC1)c1cccs1`, the melting point was 131 to 133 °C.
Compound `OC(CC1CCN(Cc2ccccc2)CC1)c1ccc(F)cc1` (stereo not drawn) has a melting point of 84 to 86 °C.
In the case of `COc1ccc(CCCc2ccc(O)cc2O)c(OC)c1C`, the melting point was 108 °C.
With `O=C(Nc1ccc(Cl)cc1)N1CC(c2ccccc2)C(c2ccc(Cl)cc2)=N1` (stereo not drawn) the melting point was 173 to 175 °C.
`COc1ccc(N(C)c2nc(NC(=O)C(C)(C)C)nc3[nH]c4ccccc4c23)cc1` showed a melting point of 288 to 289 °C.
`CC(CN(C)C)N1c2ccccc2Sc2ccc(C(=S)NCC3CCCCC3)cc21` (racemic) gave a melting point of 167 °C.
Work on `COc1ccc(C)cc1NC(=O)Nc1ccc(C2CCN(C(=O)Nc3ncccc3CO)CC2)cc1` yielded a melting point of 105 to 110 °C.
Work on `CCOCc1nc2c(N)nc3c(c2n1CCCCS(N)(=O)=O)CCCC3` yielded a melting point of 224 to 227 °C.
Compound `COc1ccc(Cn2c(=O)c3c(c4ccccc42)OC(C)(C)[C@@H](O)[C@@H]3NC(=O)CCCCl)cc1` (relative stereo) has a melting point of 218 to 219 °C.
